Test results as given in PubChem BioAssay (NCI).
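Assay format: 96-well plates, 48-hour exposure. At the TGI there is no net growth.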

Assays:
Experiment in all cases: NCI tumour cell line growth inhibition, 48 h
[1] = test system: UACC-257 melanoma
[2] = test system: A549 NSCLC
[3] = test system: SNB-19 CNS
[4] = test system: OVCAR-3 ovarian
[5] = test system: DU-145 prostate
[6] = test system: HOP-62 NSCLC
[7] = test system: OVCAR-4 ovarian
[8] = test system: SK-MEL-28 melanoma
[9] = test system: HCT-116 colon
[10] = test system: A498 renal
[11] = test system: HL-60(TB) leukemia
[12] = test system: MCF7 breast
[13] = test system: T-47D breast
[14] = test system: KM12 colon
[15] = test system: SF-295 CNS
[16] = test system: SR leukemia
[17] = test system: PC-3 prostate
[18] = test system: LOX IMVI melanoma
[19] = test system: IGROV1 ovarian
[20] = test system: COLO 205 colon
[21] = test system: SN12C renal
[22] = test system: SNB-75 CNS
[23] = test system: BT-549 breast
[24] = test system: UACC-62 melanoma
[25] = test system: RXF 393 renal
[26] = test system: OVCAR-5 ovarian
[27] = test system: NCI-H460 lung
[28] = test system: SK-MEL-5 melanoma
[29] = test system: SW-620 colon
[30] = test system: EKVX NSCLC
[31] = test system: OVCAR-8 ovarian
[32] = test system: CAKI-1 renal
[33] = test system: 786-0 renal
[34] = test system: CCRF-CEM leukemia
[35] = test system: NCI-H23 lung
[36] = test system: HCT-15 colon
[37] = test system: RPMI-8226 leukemia
[38] = test system: SK-OV-3 ovarian
[39] = test system: M14 melanoma
[40] = test system: UO-31 renal
[41] = test system: MDA-N
[42] = test system: HCC-2998 colon
[43] = test system: SK-MEL-2 melanoma
[44] = test system: MOLT-4 leukemia
[45] = test system: HOP-92 NSCLC
[46] = test system: U251 CNS
[47] = test system: NCI/ADR-RES ovarian
[48] = test system: MDA-MB-435
[49] = test system: K-562 leukemia
[50] = test system: TK-10 renal
[51] = test system: ACHN renal
[52] = test system: HS 578T breast
[53] = test system: NCI-H522 lung
[54] = test system: SF-268 CNS
[55] = test system: SF-539 CNS
[56] = test system: HT29 colon
[57] = test system: MDA-MB-231 breast
[58] = test system: MALME-3M melanoma
[59] = test system: NCI-H226 lung

Structure (SMILES): COc1ccc2nc3n(c2c1)C(c1c(F)cccc1Cl)SC3 (stereo not given)
- TGI [1]: > 100 µM
- TGI [2]: > 100 µM
- TGI [3]: > 100 µM
- TGI [4]: > 100 µM
- TGI [5]: > 100 µM
- TGI [6]: > 100 µM
- TGI [7]: > 100 µM
- TGI [8]: > 100 µM
- TGI [9]: > 100 µM
- TGI [10]: > 100 µM
- TGI [11]: > 100 µM
- TGI [12]: > 100 µM
- TGI [13]: > 100 µM
- TGI [14]: > 100 µM
- TGI [15]: > 100 µM
- TGI [16]: > 100 µM
- TGI [17]: > 100 µM
- TGI [18]: > 100 µM
- TGI [19]: > 100 µM
- TGI [20]: > 100 µM
- TGI [21]: > 100 µM
- TGI [22]: > 100 µM
- TGI [23]: > 100 µM
- TGI [24]: > 100 µM
- TGI [25]: > 100 µM
- TGI [26]: > 100 µM
- TGI [27]: > 100 µM
- TGI [28]: > 100 µM
- TGI [29]: > 100 µM
- TGI [30]: > 100 µM
- TGI [31]: > 100 µM
- TGI [32]: > 100 µM
- TGI [33]: > 100 µM
- TGI [34]: > 100 µM
- TGI [35]: > 100 µM
- TGI [36]: > 100 µM
- TGI [37]: > 100 µM
- TGI [38]: > 100 µM
- TGI [39]: > 100 µM
- TGI [40]: > 100 µM
- TGI [41]: > 100 µM
- TGI [42]: > 100 µM
- TGI [43]: > 100 µM
- TGI [44]: > 100 µM
- TGI [45]: > 100 µM
- TGI [46]: > 100 µM
- TGI [47]: > 100 µM
- TGI [48]: > 100 µM
- TGI [49]: > 100 µM
- TGI [50]: > 100 µM
- TGI [51]: > 100 µM

Structure (SMILES): Cc1cc2nn(C3CCCO3)nc2cc1C (stereo not given)
- TGI [1]: > 100 µM
- TGI [52]: > 100 µM
- TGI [2]: > 100 µM
- TGI [4]: > 100 µM
- TGI [5]: > 100 µM
- TGI [6]: > 100 µM
- TGI [7]: > 100 µM
- TGI [9]: > 100 µM
- TGI [10]: > 100 µM
- TGI [53]: > 100 µM
- TGI [12]: > 100 µM
- TGI [54]: > 100 µM
- TGI [13]: > 100 µM
- TGI [55]: > 100 µM
- TGI [15]: > 100 µM
- TGI [16]: > 100 µM
- TGI [17]: > 100 µM
- TGI [19]: > 100 µM
- TGI [20]: > 100 µM
- TGI [56]: > 100 µM
- TGI [21]: > 100 µM
- TGI [22]: > 100 µM
- TGI [24]: > 100 µM
- TGI [25]: > 100 µM
- TGI [26]: > 100 µM
- TGI [27]: > 100 µM
- TGI [28]: > 100 µM
- TGI [30]: > 100 µM
- TGI [31]: > 100 µM
- TGI [32]: > 100 µM
- TGI [57]: > 100 µM
- TGI [33]: > 100 µM
- TGI [34]: > 100 µM
- TGI [35]: > 100 µM
- TGI [36]: > 100 µM
- TGI [38]: > 100 µM
- TGI [39]: > 100 µM
- TGI [41]: > 100 µM
- TGI [42]: > 100 µM
- TGI [43]: > 100 µM
- TGI [44]: > 100 µM
- TGI [58]: > 100 µM
- TGI [46]: > 100 µM
- TGI [47]: > 100 µM
- TGI [48]: > 100 µM
- TGI [49]: > 100 µM
- TGI [50]: > 100 µM
- TGI [59]: > 100 µM

Structure (SMILES): Nc1nnnn1NC(=O)NCCCl
- TGI [1]: > 10 µM
- TGI [52]: > 10 µM
- TGI [2]: > 10 µM
- TGI [3]: > 10 µM
- TGI [4]: > 10 µM
- TGI [5]: > 10 µM
- TGI [6]: > 10 µM
- TGI [7]: > 10 µM
- TGI [8]: > 10 µM
- TGI [9]: > 10 µM
- TGI [10]: > 10 µM
- TGI [53]: > 10 µM
- TGI [11]: > 10 µM
- TGI [12]: > 10 µM
- TGI [54]: > 10 µM
- TGI [13]: > 10 µM
- TGI [55]: > 10 µM
- TGI [14]: > 10 µM
- TGI [15]: > 10 µM
- TGI [16]: > 10 µM
- TGI [17]: > 10 µM
- TGI [18]: > 10 µM
- TGI [19]: > 10 µM
- TGI [20]: > 10 µM
- TGI [56]: > 10 µM
- TGI [21]: > 10 µM
- TGI [22]: > 10 µM
- TGI [24]: > 10 µM
- TGI [25]: > 10 µM
- TGI [27]: > 10 µM
- TGI [28]: > 10 µM
- TGI [29]: > 10 µM
- TGI [30]: > 10 µM
- TGI [31]: > 10 µM
- TGI [32]: > 10 µM
- TGI [57]: > 10 µM
- TGI [33]: > 10 µM
- TGI [34]: > 10 µM
- TGI [35]: > 10 µM
- TGI [36]: > 10 µM
- TGI [37]: > 10 µM
- TGI [38]: > 10 µM
- TGI [39]: > 10 µM
- TGI [40]: > 10 µM
- TGI [41]: > 10 µM
- TGI [42]: > 10 µM
- TGI [43]: > 10 µM
- TGI [44]: > 10 µM
- TGI [58]: > 10 µM
- TGI [45]: > 10 µM
- TGI [46]: > 10 µM
- TGI [47]: > 10 µM
- TGI [48]: > 10 µM
- TGI [49]: > 10 µM
- TGI [50]: > 10 µM
- TGI [59]: > 10 µM
- TGI [51]: > 10 µM

Structure (SMILES): COC(=O)C1(C(=O)OC)N=C(C)OC1c1ccoc1 (stereo not given)
- TGI [1]: > 100 µM
- TGI [2]: > 100 µM
- TGI [3]: > 100 µM
- TGI [4]: > 100 µM
- TGI [5]: > 100 µM
- TGI [6]: > 100 µM
- TGI [7]: > 100 µM
- TGI [8]: > 100 µM
- TGI [9]: > 100 µM
- TGI [10]: > 100 µM
- TGI [11]: > 100 µM
- TGI [12]: > 100 µM
- TGI [13]: > 100 µM
- TGI [14]: > 100 µM
- TGI [15]: > 100 µM
- TGI [16]: > 100 µM
- TGI [17]: > 100 µM
- TGI [18]: > 100 µM
- TGI [20]: > 100 µM
- TGI [21]: > 100 µM
- TGI [22]: > 100 µM
- TGI [23]: > 100 µM
- TGI [24]: > 100 µM
- TGI [25]: > 100 µM
- TGI [26]: > 100 µM
- TGI [27]: > 100 µM
- TGI [28]: > 100 µM
- TGI [29]: > 100 µM
- TGI [30]: > 100 µM
- TGI [31]: > 100 µM
- TGI [32]: > 100 µM
- TGI [33]: > 100 µM
- TGI [34]: > 100 µM
- TGI [35]: > 100 µM
- TGI [36]: > 100 µM
- TGI [37]: > 100 µM
- TGI [38]: > 100 µM
- TGI [39]: > 100 µM
- TGI [40]: > 100 µM
- TGI [41]: > 100 µM
- TGI [42]: > 100 µM
- TGI [43]: > 100 µM
- TGI [44]: > 100 µM
- TGI [45]: > 100 µM
- TGI [46]: > 100 µM
- TGI [47]: > 100 µM
- TGI [48]: > 100 µM
- TGI [49]: > 100 µM
- TGI [50]: > 100 µM
- TGI [59]: > 100 µM
- TGI [51]: > 100 µM

Structure (SMILES): Nc1ncnc2c1ncn2C1OC(CO)C2OC21 (stereo not given)
- TGI [1]: > 100 µM
- TGI [52]: > 100 µM
- TGI [2]: > 100 µM
- TGI [3]: > 100 µM
- TGI [4]: > 10 µM
- TGI [5]: > 100 µM
- TGI [6]: > 100 µM
- TGI [7]: > 100 µM
- TGI [8]: > 100 µM
- TGI [9]: > 100 µM
- TGI [10]: > 100 µM
- TGI [53]: > 100 µM
- TGI [11]: > 100 µM
- TGI [12]: > 100 µM
- TGI [54]: > 100 µM
- TGI [13]: > 100 µM
- TGI [55]: > 100 µM
- TGI [14]: > 100 µM
- TGI [15]: > 100 µM
- TGI [16]: > 100 µM
- TGI [17]: > 100 µM
- TGI [18]: > 100 µM
- TGI [19]: > 100 µM
- TGI [20]: > 100 µM
- TGI [56]: > 100 µM
- TGI [21]: > 100 µM
- TGI [22]: > 100 µM
- TGI [24]: > 100 µM
- TGI [25]: > 100 µM
- TGI [26]: > 100 µM
- TGI [27]: > 10 µM
- TGI [28]: > 100 µM
- TGI [29]: > 100 µM
- TGI [30]: > 100 µM
- TGI [31]: > 100 µM
- TGI [32]: > 100 µM
- TGI [57]: > 100 µM
- TGI [33]: > 10 µM
- TGI [34]: > 100 µM
- TGI [35]: > 100 µM
- TGI [36]: > 10 µM
- TGI [37]: > 100 µM
- TGI [38]: > 100 µM
- TGI [39]: > 10 µM
- TGI [40]: > 100 µM
- TGI [41]: > 10 µM
- TGI [42]: > 100 µM
- TGI [43]: > 100 µM
- TGI [44]: > 100 µM
- TGI [58]: > 10 µM
- TGI [45]: > 100 µM
- TGI [46]: > 100 µM
- TGI [47]: > 10 µM
- TGI [48]: > 10 µM
- TGI [49]: > 100 µM
- TGI [50]: > 100 µM
- TGI [59]: > 100 µM
- TGI [51]: > 100 µM
